According to patent US7772241B2, “Variolin derivatives and their use as antitumor agents” (Pharma Mar S.A., priority 2001, dated 2010):
Where two headings read alike, the source gives them in different places. One block for each compound: values may come before it.

Columns and labels:
LNCaP = test: Inhibition of cells growth by colorimetric (SRB) assay, LNCaP; conditions: for GI50 / CC50: Homo sapiens, LNCaP, 48 h; for GI50: read-out: LN-caP GI50, SRB assay, 48 hours exposure; for CC50: read-out: LN-caP LC50, SRB assay, 48 hours exposure; for LN-caP TGI: SRB assay, 48 hours exposure
Method in brief: (§1)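 Human tumour cells seeded at 5×10^3/well in RPMI 1640 10% FBS, attached 18 h, then exposed 48 h to samples at 10 to 10^−8 μg/ml in DMSO/EtOH/PBS (0.5:0.5:99). Growth read by SRB staining after TCA fixation, OD 490 nm, triplicate wells; GI, TGI and LC derived.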

HeLa-APL = test: Inhibition of cells growth by colorimetric (SRB) assay, HeLa-APL; conditions: for GI50 / CC50: Homo sapiens, 48 h; for GI50: read-out: HELA-APL GI50, SRB assay, 48 hours exposure; for CC50: read-out: HELA-APL LC50, SRB assay, 48 hours exposure; for HELA-APL TGI: SRB assay, 48 hours exposure
Description: (§2) The finality of these assays is to interrupt the growth of a “in vitro” tumor cell culture by means a continued exhibition of the cells to the sample to be testing.
(§3) This form of the assay employs 96 well cell culture microplates of 9 mm diameter (Faircloth, 1988; Mosmann, 1983). Most of the cell lines are obtained from American Type Culture Collection (ATCC) derived from different human cancer types.
(§4) Cells are maintained in RPMI 1640 10% FBS, supplemented with 0.1 g/l penicillin and 0.1 g/l streptomycin sulphate and then incubated at 37° C., 5% CO2 and 98% humidity. For the experiments, cells were harvested from subconfluent cultures using trypsin and resuspended in fresh medium before plating.
(§5) Cells are seeded in 96 well microtiter plates, at 5×10^3 cells per well in aliquots of 195 μl medium, and they are allowed to attach to the plate surface by growing in drug free medium for 18 hours. Afterward, samples are added in aliquots of 5 μl in a ranging from 10 to 10^−8 μg/ml, dissolved in DMSO/EtOH/PBS (0.5:0.5:99). After 48 hours exposure, the antitumor effect are measured by the SRB methodology: cells are fixed by adding 50 μl of cold 50% (wt/vol) trichloroacetic acid (TCA) and incubating for 60 minutes at 4° C. Plates are washed with deionized water and dried. One hundred μl of SRB solution (0.4% wt/vol in 1% acetic acid) is added to each microtiter well and incubated for 10 minutes at room temperature. Unbound SRB is removed by washing with 1% acetic acid. Plates are air dried and bound stain is solubilized with Tris buffer. Optical densities are read on a automated spectrophotometric plate reader at a single wavelength of 490 nm.
(§6) The values for mean +/−SD of data from triplicate wells are calculated. Some parameters for cellular responses can be calculated: GI=growth inhibition, TGI=total growth inhibition (cytostatic effect) and LC=cell killing (cytotoxic effect).

IGROV-ET = test: Inhibition of cells growth by colorimetric (SRB) assay, IGROV-ET; conditions: for GI50 / CC50: Homo sapiens, 48 h; for GI50: read-out: IGROV-ET GI50, SRB assay, 48 hours exposure; for CC50: read-out: IGROV-ET LC50, SRB assay, 48 hours exposure; for IGROV-ET TGI: SRB assay, 48 hours exposure
Method in brief: as §1

DU-145 = test: Inhibition of cells growth by colorimetric (SRB) assay, DU-145; conditions: for GI50 / CC50: Homo sapiens, DU-145, 48 h; for GI50: read-out: DU-145 GI50, SRB assay, 48 hours exposure; for CC50: read-out: DU-145 LC50, SRB assay, 48 hours exposure; for DU-145 TGI: SRB assay, 48 hours exposure
Method in brief: as §1

SK-MEL-28 = test: Inhibition of cells growth by colorimetric (SRB) assay, SK-MEL-28; conditions: for GI50 / CC50: Homo sapiens, SK-MEL-28, 48 h; for GI50: read-out: MEL-28 GI50, SRB assay, 48 hours exposure; for CC50: read-out: MEL-28 LC50, SRB assay, 48 hours exposure; for MEL-28 TGI: SRB assay, 48 hours exposure
Method in brief: as §1

PANC-1 = test: Inhibition of cells growth by colorimetric (SRB) assay, PANC-1; conditions: for GI50 / CC50: Homo sapiens, PANC-1, 48 h; for GI50: read-out: PANC-1 GI50, SRB assay, 48 hours exposure; for CC50: read-out: PANC-1 LC50, SRB assay, 48 hours exposure; for PANC-1 TGI: SRB assay, 48 hours exposure
Method in brief: as §1

LoVo = test: Inhibition of cells growth by colorimetric (SRB) assay, LoVo; conditions: for GI50 / CC50: Homo sapiens, LoVo, 48 h; for GI50: read-out: LOVO GI50, SRB assay, 48 hours exposure; for CC50: read-out: LOVO LC50, SRB assay, 48 hours exposure; for LOVO TGI: SRB assay, 48 hours exposure
Method in brief: as §1

HeLa = test: Inhibition of cells growth by colorimetric (SRB) assay, HeLa; conditions: for GI50: Homo sapiens, HeLa, 48 h, read-out: HELA GI50, SRB assay, 48 hours exposure; for HELA TGI: SRB assay, 48 hours exposure
Description: as §2, §3, §4, §5, §6

IGROV-1 = test: Inhibition of cells growth by colorimetric (SRB) assay, IGROV-1; conditions: for GI50 / CC50: Homo sapiens, IGROV-1, 48 h; for GI50: read-out: IGROV GI50, SRB assay, 48 hours exposure; for CC50: read-out: IGROV LC50, SRB assay, 48 hours exposure; for IGROV TGI: SRB assay, 48 hours exposure
Method in brief: as §1

A-549 = test: Inhibition of cells growth by colorimetric (SRB) assay, A-549
Method in brief: as §1

K-562 = test: Inhibition of cells growth by colorimetric (SRB) assay, K-562; conditions: for GI50 / CC50: Homo sapiens, K562, 48 h; for GI50: read-out: K-562 GI50, SRB assay, 48 hours exposure; for CC50: read-out: K-562 LC50, SRB assay, 48 hours exposure; for K-562 TGI: SRB assay, 48 hours exposure
Method in brief: as §1

SK-BR-3 = test: Inhibition of cells growth by colorimetric (SRB) assay, SK-BR-3; conditions: for GI50 / CC50: Homo sapiens, SK-BR-3, 48 h; for GI50: read-out: SK-BR-3 GI50, SRB assay, 48 hours exposure; for CC50: read-out: SK-BR-3 LC50, SRB assay, 48 hours exposure; for SK-BR-3 TGI: SRB assay, 48 hours exposure
Method in brief: as §1

HT-29 = test: Inhibition of cells growth by colorimetric (SRB) assay, HT-29
Method in brief: as §1

LoVo-Dox = test: Inhibition of cells growth by colorimetric (SRB) assay, LoVo-Dox; conditions: for GI50 / CC50: Homo sapiens, 48 h; for GI50: read-out: LOVO-DOX GI50, SRB assay, 48 hours exposure; for CC50: read-out: LOVO-DOX LC50, SRB assay, 48 hours exposure; for LOVO-DOX TGI: SRB assay, 48 hours exposure
Method in brief: as §1

[1] = Homo sapiens, A549, 48 h, read-out: A-549 GI50, SRB assay, 48 hours exposure
[2] = Homo sapiens, A549, 48 h, read-out: A-549 LC50, SRB assay, 48 hours exposure
[3] = Homo sapiens, HT-29, 48 h, read-out: HT-29 GI50, SRB assay, 48 hours exposure
[4] = Homo sapiens, HT-29, 48 h, read-out: HT-29 LC50, SRB assay, 48 hours exposure

GI50 (LNCaP): 3.49 µM
GI50 (HeLa-APL): 0.0569 µM
GI50 (DU-145): 4.27 µM
GI50 (SK-MEL-28): 4.97 µM
GI50 (PANC-1): 6.53 µM
GI50 (LoVo): 5.11 µM
GI50 (HeLa): 0.0449 µM
GI50 (A-549; [1]): 7.31 µM
GI50 (K-562): 4.72 µM
GI50 (SK-BR-3): 1.34 µM
GI50 (HT-29; [3]): 4.41 µM
GI50 (LoVo-Dox): 3.1 µM
SMILES: CSc1nccc(-c2c3cc4ccccc4nc3n3c(N)nccc23)n1 [Compound 18a]
CC50 (LNCaP): 15.3 µM
LN-caP TGI (LNCaP): 7.31E−06
CC50 (HeLa-APL): 6.56 µM
HELA-APL TGI (HeLa-APL): 8.31E−07
GI50 (IGROV-ET): 7.06 µM
CC50 (IGROV-ET): ≥ 27.9 µM
IGROV-ET TGI (IGROV-ET): 1.53E−05
CC50 (DU-145): 23.3 µM
DU-145 TGI (DU-145): 9.99E−06
CC50 (SK-MEL-28): ≥ 27.9 µM
MEL-28 TGI (SK-MEL-28): 1.20E−05
CC50 (PANC-1): ≥ 27.9 µM
PANC-1 TGI (PANC-1): 1.46E−05
CC50 (LoVo): 17 µM
LOVO TGI (LoVo): 9.32E−06
HELA TGI (HeLa): 3.68E−06
GI50 (IGROV-1): 5.47 µM
CC50 (IGROV-1): ≥ 27.9 µM
IGROV TGI (IGROV-1): 1.33E−05
CC50 (A-549; [2]): ≥ 27.9 µM
A-549 TGI (A-549; SRB assay, 48 hours exposure): 1.66E−05
CC50 (K-562): ≥ 27.9 µM
K-562 TGI (K-562): 1.66E−05
CC50 (SK-BR-3): ≥ 27.9 µM
SK-BR-3 TGI (SK-BR-3): 4.94E−06
CC50 (HT-29; [4]): ≥ 27.9 µM
HT-29 TGI (HT-29; SRB assay, 48 hours exposure): 1.67E−05
CC50 (LoVo-Dox): ≥ 27.9 µM
LOVO-DOX TGI (LoVo-Dox): 9.74E−06

GI50 (LNCaP): 1.36 µM
GI50 (HeLa-APL): 0.0182 µM
GI50 (DU-145): 1.68 µM
GI50 (SK-MEL-28): 0.85 µM
GI50 (PANC-1): 5.71 µM
GI50 (LoVo): 0.717 µM
GI50 (HeLa): 0.0233 µM
GI50 (A-549; [1]): 0.937 µM
GI50 (A-549; Homo sapiens, A549, 48 h, read-out: GI50 A-549, SRB assay, 48 hours exposure): 2.17 µM
GI50 (K-562): 5.27 µM
GI50 (SK-BR-3): 1.24 µM
GI50 (HT-29; [3]): 0.932 µM
GI50 (HT-29; read-out: HT-29 GI50, SRB assay, 48 hours exposure): 1.13 µM
GI50 (LoVo-Dox): 1.22 µM
SMILES: CSc1nccc(-c2c3ccc(C)nc3n3c(N)nccc23)n1 [Compound 43]
CC50 (LNCaP): 12.5 µM
LN-caP TGI (LNCaP): 3.94E−06
CC50 (HeLa-APL): 7.88 µM
HELA-APL TGI (HeLa-APL): 1.75E−07
GI50 (IGROV-ET): 3.69 µM
CC50 (IGROV-ET): ≥ 31 µM
IGROV-ET TGI (IGROV-ET): 1.87E−05
CC50 (DU-145): 24.5 µM
DU-145 TGI (DU-145): 6.79E−06
CC50 (SK-MEL-28): 15.3 µM
MEL-28 TGI (SK-MEL-28): 3.72E−06
CC50 (PANC-1): ≥ 31 µM
PANC-1 TGI (PANC-1): 1.65E−05
CC50 (LoVo): ≥ 31 µM
LOVO TGI (LoVo): 2.37E−06
HELA TGI (HeLa): 2.03E−07
GI50 (IGROV-1): 6.64 µM
CC50 (IGROV-1): ≥ 31 µM
IGROV TGI (IGROV-1): 1.60E−05
CC50 (A-549; [2]): 31.1 µM
CC50 (A-549; read-out: A-549 LC50, SRB assay, 48 hours exposure): ≥ 17.3 µM
CC50 (K-562): 21.2 µM
K-562 TGI (K-562): 1.06E−05
CC50 (SK-BR-3): ≥ 31 µM
SK-BR-3 TGI (SK-BR-3): 5.27E−06
CC50 (HT-29; [4]): 31.1 µM
CC50 (HT-29; read-out: HT-29 LC50, SRB assay, 48 hours exposure): ≥ 31 µM
CC50 (LoVo-Dox): ≥ 31 µM
LOVO-DOX TGI (LoVo-Dox): 5.24E−06
